Measurements taken from patent publication US20250145566A1, “PHENETHYLAMINE DERIVATIVES, COMPOSITIONS, AND METHODS OF USE” (Cybin IRL Limited, priority 2022, published 2025).
Entries after “also recorded” stand apart in the source; their conditions may differ. Read-outs that look alike come from different tables or passages of the source.

Columns and labels:
5-HT2C (h) = biological target: T1, 5-HT2C (h) (Homo sapiens, UniProt P28335); assay: 5-HT2C (h) agonist effect, IP1 HTRF functional assay; type: cell-based; settings: for agonist efficacy at 5-HT2C, in words: EMAX relative to 5-HT
T1 construct: expressed in transfected cells; host or cells: HEK-293 cells
T1 sequence (P28335 33-458): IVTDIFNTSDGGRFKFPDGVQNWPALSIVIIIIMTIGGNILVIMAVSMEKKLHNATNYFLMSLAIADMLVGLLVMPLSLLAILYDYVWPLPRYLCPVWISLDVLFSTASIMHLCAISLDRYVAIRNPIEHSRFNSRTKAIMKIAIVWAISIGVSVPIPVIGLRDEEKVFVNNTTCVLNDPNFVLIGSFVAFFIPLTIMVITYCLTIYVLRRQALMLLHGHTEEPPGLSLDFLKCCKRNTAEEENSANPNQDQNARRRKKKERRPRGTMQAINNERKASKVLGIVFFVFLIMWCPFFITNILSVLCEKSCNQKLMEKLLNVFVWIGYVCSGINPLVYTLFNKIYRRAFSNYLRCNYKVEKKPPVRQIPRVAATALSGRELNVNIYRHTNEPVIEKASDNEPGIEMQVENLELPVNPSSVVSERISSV

5-HT2B (h) = biological target: T2, 5-HT2B (h) (Homo sapiens, UniProt P41595); assay: 5-HT2B (h) agonist effect, IP1 HTRF functional assay; type: cell-based; settings: for agonist efficacy at 5-HT2B, in words: EMAX relative to 5-HT
T2 construct: expressed in transfected cells; host or cells: CHO cells
T2 sequence (P41595 whole entry): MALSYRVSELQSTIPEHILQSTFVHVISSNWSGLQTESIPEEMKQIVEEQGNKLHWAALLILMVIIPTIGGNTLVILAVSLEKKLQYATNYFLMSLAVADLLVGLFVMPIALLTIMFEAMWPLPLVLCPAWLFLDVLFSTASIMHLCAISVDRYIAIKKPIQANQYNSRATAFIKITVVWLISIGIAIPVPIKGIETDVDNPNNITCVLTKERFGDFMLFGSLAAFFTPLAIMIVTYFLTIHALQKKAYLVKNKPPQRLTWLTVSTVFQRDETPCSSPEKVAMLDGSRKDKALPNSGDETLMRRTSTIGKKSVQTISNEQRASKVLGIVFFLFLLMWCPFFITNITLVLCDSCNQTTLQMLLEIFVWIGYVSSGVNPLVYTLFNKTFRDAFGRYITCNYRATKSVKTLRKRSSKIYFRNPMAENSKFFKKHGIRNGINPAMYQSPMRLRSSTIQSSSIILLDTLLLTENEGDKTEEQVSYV

MAO-A = biological target: T3, MAO-A (Homo sapiens, UniProt P21397); assay: Recombinant human MAO-A in vitro metabolism; type: in vitro ADME; settings: for half-life at 1 µM: human, recombinant human MAO-A
T3 construct: purchased XenoTech (first series); Corning (second series) Corning 456283
T3 sequence (P21397 1-527): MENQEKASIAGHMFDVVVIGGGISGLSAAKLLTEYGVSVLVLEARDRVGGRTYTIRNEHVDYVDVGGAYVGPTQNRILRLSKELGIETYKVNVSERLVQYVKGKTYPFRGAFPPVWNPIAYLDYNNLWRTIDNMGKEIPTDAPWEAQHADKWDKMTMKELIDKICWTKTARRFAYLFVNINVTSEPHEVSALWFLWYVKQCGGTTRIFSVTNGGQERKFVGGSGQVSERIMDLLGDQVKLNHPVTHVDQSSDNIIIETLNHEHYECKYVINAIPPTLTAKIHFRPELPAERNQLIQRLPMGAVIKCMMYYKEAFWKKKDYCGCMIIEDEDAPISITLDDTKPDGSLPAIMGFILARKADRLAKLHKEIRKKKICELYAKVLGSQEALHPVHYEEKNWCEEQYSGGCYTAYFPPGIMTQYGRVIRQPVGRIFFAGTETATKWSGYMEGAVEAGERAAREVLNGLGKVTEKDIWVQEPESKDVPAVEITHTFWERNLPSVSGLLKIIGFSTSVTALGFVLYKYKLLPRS
Description: Recombinant human MAO-A. hrMAO-A and MAO control were purchased from XenoTech. The reaction mixture was prepared as described in Table 11. The test compound was added into the reaction mixture at a final concentration of 1 μM. The positive control kynuramine (25 μM) was run simultaneously with the test compound in a separate reaction. The reaction mixture (without test compounds or kynuramine) was equilibrated in a shaking water bath at 37° C. for 5 minutes. The reaction was initiated by the addition of the test compound or kynuramine, and the mixture was incubated in a shaking water bath at 37° C. Aliquots (150 μL) of the test compound reaction mixture were withdrawn at 0, 5, 10, 20, 30, 60, and for some assays at 120 minutes. Aliquots (150 μL) of the positive control reaction mixture were withdrawn at 0 and 30 minutes. Test compound and kynuramine samples were immediately combined with 150 μL of ice-cold 100% acetonitrile containing 0.1% formic acid and internal standard (0.2 μM metoprolol) to terminate the reaction. The samples were then mixed and centrifuged to precipitate proteins. All samples were assayed by LC-MS/MS. The peak area response ratio (PARR) of analyte to internal standard at each time point was compared to the PARR at time 0 to determine the percent remaining at each time point. Half-lives were calculated using GraphPad software, fitting to a single-phase exponential decay equation.
In a different series of reactions using human MAO-A and MAO-B, a 10 mM stock solution of the test compound was prepared in DMSO. From this stock solution, an intermediate stock solution of 1 mM was prepared by diluting the compound in DMSO and from this intermediate stock solution, a working solution of 0.30 mM was prepared by diluting the compound in ACN:Water (50:50) as cocktail of 2 compounds (30 μL each compound in 40 μL diluent for 100 μL). Following this, a master mix of 0.1 M potassium phosphate buffer and test compound mixture i.e., the non-deuterated and the deuterated analog, were prepared to achieve final drug concentration of 1 μM (0.2% DMSO) for the required number of reactions. The aforementioned master mix was pre-incubated at 37° C. for 5 min. To this master mix, MAO-A (final protein conc. 0.1 mg/mL; Corning Cat #456283; Lot #1173003) or MAO-B (final protein conc. 0.1 mg/mL; Corning Cat #456284; Lot #0318001) was added to initiate the reaction. The samples were then incubated at 37° C. for the desired time points. At each time point (0, 5, 15, 30, 45, 60), 40 μL of the samples were withdrawn and reactions were stopped using 200 μL chilled ACN containing 0.1% formic acid and internal standard Carbamazepine (10 ng/mL). The samples were centrifuged, and the supernatant was analyzed by LC-MS/MS. The percent compound remaining at each time point was calculated with respect to that of the 0 min sample. The data were then analyzed to calculate half-life and intrinsic clearance (CLint). Blank samples were prepared using DMSO (without the test compound).

Dopamine transporter = Dopamine transporter (Homo sapiens, UniProt Q01959); assay: Dopamine transporter uptake (h); type: cell-based
Dopamine transporter, sequence (Q01959 whole entry): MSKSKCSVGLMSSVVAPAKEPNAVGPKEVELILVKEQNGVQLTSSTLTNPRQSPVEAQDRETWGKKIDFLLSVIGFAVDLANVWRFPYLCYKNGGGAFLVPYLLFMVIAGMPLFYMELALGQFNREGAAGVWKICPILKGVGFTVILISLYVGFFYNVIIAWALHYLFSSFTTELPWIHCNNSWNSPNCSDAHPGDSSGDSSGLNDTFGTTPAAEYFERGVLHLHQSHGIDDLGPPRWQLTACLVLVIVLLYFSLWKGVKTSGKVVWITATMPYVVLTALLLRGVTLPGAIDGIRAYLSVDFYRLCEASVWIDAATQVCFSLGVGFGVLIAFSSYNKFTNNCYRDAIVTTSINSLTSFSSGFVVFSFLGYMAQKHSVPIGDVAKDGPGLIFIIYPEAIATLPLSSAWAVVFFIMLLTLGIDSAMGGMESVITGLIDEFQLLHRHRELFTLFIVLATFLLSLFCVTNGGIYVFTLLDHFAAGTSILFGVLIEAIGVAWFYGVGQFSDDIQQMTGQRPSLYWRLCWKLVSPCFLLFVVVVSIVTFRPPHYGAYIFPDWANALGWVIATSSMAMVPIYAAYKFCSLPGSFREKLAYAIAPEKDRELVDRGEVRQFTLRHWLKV

Serotonin transporter = biological target: T4, Serotonin transporter (Rattus norvegicus, UniProt P31652); assay: Serotonin transporter uptake, rat brain synaptosomes; type: biochemical; settings: for selectivity for blocking 5-HT reuptake relative to NE and DA, in words / selectivity for inhibiting SERT relative to DAT and NET: uptake inhibition
T4 construct: from tissue
T4 sequence (P31652 whole entry): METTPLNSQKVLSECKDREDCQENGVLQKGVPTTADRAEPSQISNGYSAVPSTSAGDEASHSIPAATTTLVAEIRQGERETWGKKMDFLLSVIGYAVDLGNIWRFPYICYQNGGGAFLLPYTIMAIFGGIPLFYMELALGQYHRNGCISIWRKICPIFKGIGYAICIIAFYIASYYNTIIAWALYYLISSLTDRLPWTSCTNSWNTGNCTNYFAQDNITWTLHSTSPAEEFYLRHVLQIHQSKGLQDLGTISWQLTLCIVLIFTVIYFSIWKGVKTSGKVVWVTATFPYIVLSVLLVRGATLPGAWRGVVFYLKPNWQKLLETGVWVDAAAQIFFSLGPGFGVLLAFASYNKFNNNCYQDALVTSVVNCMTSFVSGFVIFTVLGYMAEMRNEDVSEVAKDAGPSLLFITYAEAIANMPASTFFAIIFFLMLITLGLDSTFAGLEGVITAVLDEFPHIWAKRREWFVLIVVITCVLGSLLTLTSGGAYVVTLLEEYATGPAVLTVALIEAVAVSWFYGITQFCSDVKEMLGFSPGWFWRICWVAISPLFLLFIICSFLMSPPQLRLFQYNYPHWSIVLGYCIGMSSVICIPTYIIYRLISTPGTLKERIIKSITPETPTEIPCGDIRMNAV

[1] = biological target: Norepinephrine transporter (Homo sapiens, UniProt P23975); assay: Norepinephrine transporter uptake (h); type: cell-based
Norepinephrine transporter, sequence (P23975 whole entry): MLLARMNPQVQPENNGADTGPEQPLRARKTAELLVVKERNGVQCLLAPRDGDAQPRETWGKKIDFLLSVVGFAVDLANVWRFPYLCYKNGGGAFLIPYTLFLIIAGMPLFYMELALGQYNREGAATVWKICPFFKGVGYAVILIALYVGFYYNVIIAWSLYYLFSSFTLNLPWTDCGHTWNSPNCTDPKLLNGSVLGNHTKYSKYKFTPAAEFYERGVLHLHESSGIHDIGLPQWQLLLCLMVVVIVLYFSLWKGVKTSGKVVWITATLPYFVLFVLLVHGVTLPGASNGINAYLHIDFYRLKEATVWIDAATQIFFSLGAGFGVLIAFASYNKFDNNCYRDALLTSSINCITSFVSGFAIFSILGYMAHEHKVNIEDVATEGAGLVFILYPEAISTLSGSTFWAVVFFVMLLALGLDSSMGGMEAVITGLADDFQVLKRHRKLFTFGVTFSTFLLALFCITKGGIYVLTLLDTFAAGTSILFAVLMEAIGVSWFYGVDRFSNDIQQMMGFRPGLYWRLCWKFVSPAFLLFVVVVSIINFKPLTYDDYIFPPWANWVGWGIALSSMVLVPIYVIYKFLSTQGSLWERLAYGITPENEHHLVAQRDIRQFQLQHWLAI

[2] = human recombinant MAO-A, test compound 1 μM, read-out: MAO-A t1/2

SMILES: CC(N)Cc1ccc2c(c1)OCS2 (stereo not drawn) [II-16, 1-(benzo[d][1,3]oxathiol-6-yl)propan-2-amine]
- agonist efficacy at 5-HT2C, in words (5-HT2C (h); tested at 1, 3, 10, 100 μM): nearly full or full agonist; also recorded: full agonists
- agonist efficacy at 5-HT2B, in words (5-HT2B (h); tested at 1, 3, 10, 100 μM): nearly full or full agonist; also recorded: full agonists
- half-life at 1 µM (MAO-A; [2]): > 120 min
- stability in the presence of MAO-A (MAO-A; result in words): stable
- efficacy for blocking DA uptake through DAT, in words (Dopamine transporter; tested at 1, 10, 100 μM): full efficacy
- efficacy for blocking 5-HT uptake through SERT, in words (Serotonin transporter; tested at 1, 3, 10, 100 μM): full efficacy
- selectivity for blocking 5-HT reuptake relative to NE and DA, in words (Serotonin transporter): selectivity (higher potency) for blocking 5-HT reuptake relative to NE and DA
- selectivity for inhibiting SERT relative to DAT and NET (Serotonin transporter): ~5 fold
- efficacy for blocking NE uptake through NET, in words ([1]; tested at 1, 10, 100 μM): full efficacy

SMILES: NCCc1ccc2c(c1)OCS2 [II-14, 2-(benzo[d][1,3]oxathiol-6-yl)ethan-1-amine]
- EC50 (5-HT2C (h)): < 750 nM
- Emax at 3 µM (5-HT2C (h); at 3 μM, relative to 5-HT, read-out: Function 5-HT2C EMAX): 107%
- Function 5-HT2C (Gq-IP1, efficacy relative to 5-HT), agonist type (5-HT2C (h); tested at 1, 3, 10, 100 μM): Full agonist -
- agonist efficacy at 5-HT2C, in words (5-HT2C (h); tested at 1, 3, 10, 100 μM): nearly full or full agonist; also recorded: full agonists
- EC50 (5-HT2B (h)): < 750 nM
- Emax at 10 µM (5-HT2B (h); at 10 μM, relative to 5-HT, read-out: Function 5-HT2B EMAX): 100%
- Function 5-HT2B (Gq-IP1, efficacy relative to 5-HT), agonist type (5-HT2B (h); tested at 1, 3, 10, 100 μM): Full agonist -
- agonist efficacy at 5-HT2B, in words (5-HT2B (h); tested at 1, 3, 10, 100 μM): nearly full or full agonist; also recorded: full agonists
- half-life at 1 µM (MAO-A; 1 μM test compound, read-out: half-life, MAO-A metabolism): ≤ 8 min
- half-life at 1 µM (MAO-A; [2]): 4.09 min
- IC50 (Dopamine transporter; Function DAT Estimated IC50, blocking reuptake of DA): ~10000 nM
- inhibition at 100 µM (Dopamine transporter; at 100 μM, read-out: Function DAT, inhibition of DAT): 95%
- Function DAT (blocking reuptake of DA), efficacy in words (Dopamine transporter; tested at 1, 10, 100 μM): Near full efficacy,
- efficacy for blocking DA uptake through DAT, in words (Dopamine transporter; tested at 1, 10, 100 μM): full efficacy
- IC50 (Serotonin transporter): ~500 nM
- Function SERT, inhibition of SERT (Serotonin transporter; from 3 to 100 μM): 98.5-107.9%,
- Function SERT (blocking reuptake of 5-HT), efficacy in words (Serotonin transporter; tested at 1, 3, 10, 100 μM): Full efficacy,
- efficacy for blocking 5-HT uptake through SERT, in words (Serotonin transporter; tested at 1, 3, 10, 100 μM): full efficacy
- selectivity for blocking 5-HT reuptake relative to NE and DA, in words (Serotonin transporter): selectivity (higher potency) for blocking 5-HT reuptake relative to NE and DA
- selectivity for inhibiting SERT relative to DAT and NET (Serotonin transporter): ~5 fold
- IC50 [1]: ~5000 nM
- inhibition at 100 µM ([1]; at 100 μM, read-out: Function NET, inhibition of NET): 92.9%
- Function NET (blocking reuptake of NE), efficacy in words ([1]; tested at 1, 10, 100 μM): Near full efficacy,
- efficacy for blocking NE uptake through NET, in words ([1]; tested at 1, 10, 100 μM): full efficacy
